Data published in US20090220562A1, “Osteogenic and anti-adipogenic oxysterols” (priority 2005, published 2009).

Assays:
osteocalcin mRNA = assay: Northern blotting for osteocalcin mRNA in M2-10B4 cells; format: cell-based, mouse; details: for induction of osteocalcin gene expression by individual oxysterols: 0.5 to less than 10 μM, as many as 14 days (data not shown)
Method: RNA isolation and Northern blot analysis—Following treatment of cells under appropriate experimental conditions, total RNA was isolated using the RNA isolation kit from Stratagene (La Jolla, Calif., U.S.A.). Total RNA ([…]) was run on a 1% agarose/formaldehyde gel and transferred to Duralon-UV membranes (Strategene, CA, U.S.A.) and cross-linked with UV light. The membranes were hybridized overnight at 60 degree C. with ^32P-labeled mouse osteocalcin cDNA probe, mouse lipoprotein lipase (LPL), mouse adipocyte protein 2 (aP^2) PCR-generated probes, human 28S or 18S rRNA probes obtained from Geneka Biotechnology (Montreal, Quebec, Canada) and Maxim Biotech (San Francisco, Calif., U.S.A.), respectively. The PCR products were generated using primer sets synthesized by Invitrogen (Carlsbad, Calif., U.S.A.) with the following specifications: mouse aP2 gene (accession no. M13261); sense (75-95) 5′-[…]-3′, antisense (362-383) 5′-[…]-3′, generating a PCR product of 309 base pairs. Mouse LPL (accession no. XM—134193); sense (1038-1058) 5′-[…]-3′, antisense (1816-1836) 5′-[…]-3′, generating a PCR product of 799 base pairs. The PCR products were gel-purified and sequenced by the UCLA sequencing core, showing the highest similarity to their respective GenBank entries. Following hybridization, the blots were washed twice at room temperature with 2×SSC+0.1% SDS, and then twice at 60 degree C. with 0.5×SSC+0.1% SDS, and exposed to X-ray film. The extent of gene induction was determined by densitometry.
After 4 and 8 days, total RNA from duplicate samples was isolated and analyzed for osteocalcin (Osc) and 28S rRNA expression by Northern blotting as described. FIG. 3E is a radiogram of Northern blotting for osteocalcin mRNA in M2 cells exposed to a control or combination of oxysterols for 4 or 8 days. FIG. 3F is a bar graph depicting the relative demsometric units of osteocalcin mRNA in M2 cells exposed to a control or combination of oxysterols for 4 -or 8 days. Data from densitometric analysis of the Northern blot is shown in (F) as the average of duplicate samples, normalized to 28S rRNA.
Next, a combination of 22R and 20S oxysterols (RS, 2.5 μM each) were added in the presence or absence of SC as indicated. After 3 days, ALP activity was measured as described earlier. […] (B) M2 cells were treated as described in (A) and after 10 days matrix mineralization in cultures was quantified by a ^45Ca incorporation assay as described earlier. […] (C) M2 cells were pretreated with 20 μM SC for 4 hours, followed by the addition of RS in the presence or absence of SC as described above. After 8 days, total RNA was isolated and analyzed for osteocalcin (Osc) and […] expression by Northern blotting as previously described. Data from densitometric analysis of the Northern blot is shown in (D) as the average of duplicate samples, normalized to 18S rRNA. (E) M2 cells at confluence were pretreated for 2 hours with control vehicle (C), or PLA2 inhibitors ACA (25 μM) and AACOCF3 (AAC, 20 μM), in osteogenic medium. Next, a combination of 22R and 20S oxysterols (RS, 2.5 μM) was added in the presence or absence of the inhibitors as indicated. After 3 days, ALP activity was measured as previously described. […] (F) M2 cells were treated as described in (E). After 10 days, matrix mineralization in cultures was quantified using a ^45Ca incorporation assay as previously described. Results from a representative of three experiments are shown, reported as the mean of quadruplicate determinations ±SD, normalized to protein concentration (p<0.01 for RS vs. RS+ACA and RS+AAC).
ALP activity was measured after 2 days, as described. […] (B) M2 cells were treated as described in (A). After 10 days, matrix mineralization in cultures was quantified using a ^45Ca incorporation assay as described. […] (C) M2 cells were treated under similar conditions as those described above. […]

M2 cells = assay: Troglitazone-induced adipogenesis in M2 cells (oil Red O staining, adipocyte count); format: cell-based, mouse; details: Tro 10 μM, oxysterol 10 μM, 10 days, alone or in combination
Method: Von Kossa and oil red O staining—Matrix mineralization in cell monolayers was detected by silver nitrate staining as previously described. Oil red O staining for detection of adipocytes was performed as previously described.
Test 1: M2 cells at 90% confluence were treated with vehicle (C), PPAR-γ activator, troglitazone 10 μM (Tro), alone or in combination with 10 μM oxysterols 20S-, 22R-, or 25S-hydroxycholesterol. After 8 days, adipocytes were identified by oil Red 0 staining and quantified by counting under a phase contrast microscope. FIG. 6A is a bar graph depicting the effect of oxysterols on reducing adipogenesis of MSC.
Test 2: (A) M2 cells at confluence were treated in RPMI containing 10% FBS with control vehicle or 10 μM troglitazone (Tro) in the absence or presence of 10 μM 20S or 22S-hydroxycholesterol. After 10 days, adipocytes were visualized by oil Red O staining and quantified by light microscopy, shown in (B). […] (C) M2 cells were treated at confluence with 10 μM Tro, alone or in combination with 10 μM 20S oxysterol. After 10 days, total RNA was isolated and analyzed for lipoprotein lipase (LPL), adipocyte P2 gene (aP2) or 18S rRNA expression by Northern blotting as described (Ref). Data from densitometric analysis of the Northern blot is shown in (D) as the average of duplicate samples, normalized to 18S rRNA.

CC(C)CCC[C@](C)(O)[C@H]1CC[C@H]2[C@@H]3CC=C4C[C@@H](O)CC[C@]4(C)[C@H]3CC[C@@]21C [20S-hydroxycholesterol]
induction of osteocalcin gene expression by individual oxysterols (osteocalcin mRNA): unable to induce | osteocalcin mRNA expression (osteocalcin mRNA; doses of 5-15 μM): induction | effect on troglitazone-induced adipogenesis (M2 cells): inhibited adipogenesis

CC(C)CC[C@@H](O)[C@@H](C)[C@H]1CC[C@H]2[C@@H]3CC=C4C[C@@H](O)CC[C@]4(C)[C@H]3CC[C@]12C [22R-hydroxycholesterol]
induction of osteocalcin gene expression by individual oxysterols (osteocalcin mRNA): unable to induce | effect on troglitazone-induced adipogenesis (M2 cells): inhibited adipogenesis

CC(C)CC[C@H](O)[C@@H](C)[C@H]1CC[C@H]2[C@@H]3CC=C4C[C@@H](O)CC[C@]4(C)[C@H]3CC[C@]12C [22S-hydroxycholesterol]
induction of osteocalcin gene expression by individual oxysterols (osteocalcin mRNA): unable to induce | effect on troglitazone-induced adipogenesis (M2 cells): inhibited adipogenesis
